{"source": "paper PMC12677843", "about": "“Multidisciplinary Preclinical Investigations on Ferrocenyl, Ruthenocenyl, and Benzyl Derivatives of Niridazole as New Drug Candidates against Schistosomiasis” (Chemmedchem, 2025)", "test_system": "SH-SY5Y cells", "assay": "SYTOX cell viability assay, SH-SY5Y", "assay_type": "cell-based, human", "settings": "20 µM, 24 h, serum-free charcoal-treated medium, vs DMSO control (0.2%), mean", "method": "The SYTOX cell viability assay was performed in SHSY5Y cells. Cells were treated with either compound (20 µM) or DMSO control (0.2%) for 24 h at 37 °C and 5% CO2 in serum‐free charcoal‐treated medium. Results were normalized to the DMSO control. Mean ± SD was calculated from three independent experiments, each performed in quadruplicate. […]\nserum-free media containing either treatment at a concentration of 20 µM or DMSO (ITW Reagents Cat A3672) control (0.2 %).\nFollowing 24 h of incubation, 12.5 μL of an XTT/phenazine methosulfate (PMS) (XTT Sigma Aldrich cat X4626, PMS Serva CAT: 3203) 0.02solution (1 mg/mL XTT and 7.5 μg/mL PMS) was added to each well. Absorbance was measured using a microplate reader (Biotek Synergy HT) at 450 nm (signal) and 650 nm (background), 2 h after the addition of the XTT/PMS solution. Individual backgrounds were subtracted and all results were normalized to DMSO control. Mean ± SD was determined from three independent experiments, each performed in quintuplicate.\nSYTOX cell viability assay\nThe cytotoxic potential was additionally evaluated using the staining-based SYTOX viability assay. […] Data was acquired on the BioTeck Cytation5 microscope and evaluated by the manufacturer’s software (Gen5 Image Prime Version 3.12). […] Mean ± SD was determined from three independent experiments, each performed in quadruplicate. […]", "data": [{"compound": "O=C1NCCN1c1ncc([N+](=O)[O-])s1", "note": "[Niridazole, niridazole]", "values": [{"measurement": "reduction of SH-SY5Y cell viability (SYTOX)", "result": "no signs of toxicity"}]}]}
